Measurements taken from patent US11453701B2, “Tau aggregation peptide inhibitors” (ADRX, INC., priority 2017, dated 2022).
Where “and” joins values, the source holds several entries; their conditions need not be identical. Equal entries are not always repeated. Square brackets hold non-standard residues; d marks the D form. Peptide text beside a SMILES is read from it.

Target: T1, Tau40 P301L protein (Homo sapiens, UniProt P10636, P618L)
T1 construct: His (N); made in house; host or cells: E. coli BL21
Assay: Thioflavin T assay of Tau40 amyloid inhibition (Tau40 assay)
Assay type: biochemical
Details: Thioflavin T fluorescence, Tau40 P301L 2.5 μM, 10 μM heparin

T1 sequence (P10636 1-441 isoform P10636-8 P301L): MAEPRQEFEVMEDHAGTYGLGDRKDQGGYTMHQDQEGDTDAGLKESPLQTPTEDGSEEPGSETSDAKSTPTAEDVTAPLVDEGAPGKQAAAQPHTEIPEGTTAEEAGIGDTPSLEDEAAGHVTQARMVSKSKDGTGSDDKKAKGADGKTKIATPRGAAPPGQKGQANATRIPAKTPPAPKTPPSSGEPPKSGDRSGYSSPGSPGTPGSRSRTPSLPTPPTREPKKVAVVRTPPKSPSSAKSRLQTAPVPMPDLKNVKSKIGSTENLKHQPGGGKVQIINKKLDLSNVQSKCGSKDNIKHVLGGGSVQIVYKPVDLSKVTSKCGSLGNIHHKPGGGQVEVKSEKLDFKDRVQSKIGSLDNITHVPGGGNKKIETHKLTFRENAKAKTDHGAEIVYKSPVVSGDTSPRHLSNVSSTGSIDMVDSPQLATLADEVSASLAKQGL

## CC[C@@H](C)[C@@H](NC(=O)[C@@H](Cc1c[nH]cn1)NC(=O)[C@@H](CC(C)C)NC(=O)[C@@H](CCCCN)NC(=O)[C@H](N)Cc1ccccc1)C(=O)N[C@H](CCCNC(=N)N)C(=O)N[C@H](Cc1c[nH]cn1)C(=O)N[C@H](Cc1c[nH]c2ccccc12)C(=O)O [compound 128] (H-[dF][dK][dL][dH][dI][dR][dH][dW]-OH; N-terminus and C-terminus assumed)
  IC50: 1710 nM and 1760 nM
